From ChEMBL document CHEMBL1151839, “Phosphorothioate analogs of m7GTP are enzymatically stable inhibitors of cap-dependent translation” (Bioorg Med Chem Lett, 2009)

What was measured:
[1] = Stability in presence of human DcpS assessed as complete degradation at 40 uM by HPLC-based assay; assay type: ADME
[2] = target: Eukaryotic translation initiation factor 4E (Mus musculus) (UniProt P63073)
Description: Binding affinity to mouse eukaryotic initiation factor 4E expressed in Escherichia coli BL21(DE3) by fluorescence quenching titration method

[3] = target: T1, Eukaryotic translation initiation factor 4E (Oryctolagus cuniculus, UniProt P29338); test: Inhibition of eukaryotic initiation factor 4E in micrococcal nuclease-pretreated rabbit reticulocyte lysate assessed as inhibition of rabbit beta-[…] mRNA translation by [3H]leucine incorporation assay
T1 sequence (P29338 whole entry): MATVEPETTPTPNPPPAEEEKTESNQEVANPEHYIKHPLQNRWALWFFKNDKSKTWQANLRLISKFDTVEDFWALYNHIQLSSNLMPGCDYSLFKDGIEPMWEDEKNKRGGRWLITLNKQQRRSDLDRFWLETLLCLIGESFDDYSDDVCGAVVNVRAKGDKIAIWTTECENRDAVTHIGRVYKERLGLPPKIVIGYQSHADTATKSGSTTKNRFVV

[4] = target: T1, Eukaryotic translation initiation factor 4E; test: Inhibition of eukaryotic initiation factor 4E in micrococcal nuclease-pretreated rabbit reticulocyte lysate assessed as inhibition of m7,3'-O-GpppG-capped 5'UTRbetaglob-LUC mRNA translation treated 60 mins before mRNA addition by luciferase-based luminometry
[5] = target: T1, Eukaryotic translation initiation factor 4E; test: Inhibition of eukaryotic initiation factor 4E in micrococcal nuclease-pretreated rabbit reticulocyte lysate assessed as inhibition of m7,3'-O-GpppG-capped 5'UTRbetaglob-LUC mRNA translation by luciferase-based luminometry

Sequence of Eukaryotic translation initiation factor 4E (Mus musculus) (P63073 whole entry): as the sequence (P29338 whole entry) above, with P12T counted along it

| Stability [1] | Ka [2] | IC50 [3] | IC50 [4] | IC50 [5] | SMILES |
| --- | --- | --- | --- | --- | --- |
| Stable | 10 µM⁻¹ | 12.1 µM | 2.1 µM | 3.8 µM | C[n+]1cn([C@@H]2O[C@H](CO[P@@](=O)(S)OP(=O)([O-])OP(=O)(O)OC[C@H]3O[C@@H](n4cnc5c(=O)[nH]c(N)nc54)[C@H](O)[C@@H]3O)[C@@H](O)[C@H]2O)c2nc(N)nc(O)c21 |
| – | 190 µM⁻¹ | – | – | – | C[n+]1cn([C@@H]2O[C@H](CO[P@@](=O)(S)OP(=O)(O)OP(=O)([O-])O)[C@@H](O)[C@H]2O)c2c1C(O)NC(N)=N2 (stereo not given in full) |
| Unstable | – | 17.1 µM | < 20 µM | 8.3 µM | C[n+]1cn([C@@H]2O[C@H](COP(=O)(O)OP(=O)([O-])OP(=O)(O)OC[C@H]3O[C@@H](n4cnc5c(=O)[nH]c(N)nc54)[C@H](O)[C@@H]3O)[C@@H](O)[C@H]2O)c2nc(N)[nH]c(=O)c21 |
| Stable | – | 4.1 µM | 1.2 µM | 1.1 µM | C[n+]1cn([C@@H]2O[C@H](CO[P@](=O)(S)OP(=O)(O)OP(=O)(O)OC[C@H]3O[C@@H](n4cnc5c(=O)[nH]c(N)nc54)[C@H](O)[C@@H]3O)[C@@H](O)[C@H]2O)c2nc(N)[n-]c(=O)c21 |

The remaining lines, values behind:

| SMILES | Stability [1] | Ka [2] | IC50 [3] | IC50 [4] | IC50 [5] |
| --- | --- | --- | --- | --- | --- |
| C[n+]1cn([C@@H]2O[C@H](COP(=O)([O-])OP(=O)(O)OP(=O)(O)O)[C@@H](O)[C@H]2O)c2nc(N)[nH]c(=O)c21 | Unstable | – | – | – | – |
| C[n+]1cn([C@@H]2O[C@H](COP(=O)(O)OP(=O)([O-])OP(=O)(O)OC[C@H]3O[C@@H](n4cnc5c(=O)[nH]c(N)nc54)[C@H](O)[C@@H]3O)[C@@H](O)[C@H]2O)c2nc(N)nc(O)c21 | – | 9.4 µM⁻¹ | – | – | – |
| C[n+]1cn([C@@H]2O[C@H](CO[P@](=O)(S)OP(=O)([O-])OP(=O)(O)O)[C@@H](O)[C@H]2O)c2nc(N)nc(O)c21 | Stable | 371 µM⁻¹ | – | 0.56 µM | 0.56 µM |
